Earlier results, collected in US11406718B2, “Methods of detecting pancreobiliary ductal leaks” (CHIRHOCLIN, INC., priority 2012, dated 2022).
No end group written: not given here.

Row | Substance | effect on pancreatic duct diameter (pancreas; in vivo) | effect on sphincter of Oddi (pancreas; in vivo) | effect on pancreatic juice (pancreas; primary action) | allergic reactions (human, in vivo) | dose safely given (human, in vivo) [µg/kg] | hemodynamic effects (human, in vivo) | largest dose administered in a study, found safe (human, in vivo) [µg] | risk of acute pancreatitis episodes (human, in vivo) | serious adverse drug reactions (human secretin stimulation) | adverse reaction seen rarely (thousands of patients in pancreobiliary function testing with human secretin)
1 | secretin (HSDGTFTSELSRLRDSARLQRLLQGLV; ends and bridges not checked; UniProt P63298 33-59, looked up) | increases the pancreatic duct diameter | causes sphincter of Oddi relaxation | increase the volume and bicarbonate content of pancreatic juice | No allergic reactions have been reported | 0.78 | No significant hemodynamic effects have been observed | 160 | not known to increase the risk of acute pancreatitis episodes |  | 
2 | human secretin |  |  |  |  |  |  |  |  | There has not been any serious reported adverse drug reaction | flushing of the face with stable vital signs
